Measurements reported in paper PMC7796304, “Nephrotoxic Potential of Putative 3,5-Dichloroaniline (3,5-DCA) Metabolites and Biotransformation of 3,5-DCA in Isolated Kidney Cells from Fischer 344 Rats” (International Journal of Molecular Sciences, 2020).

Experiments:
[1] = system: isolated kidney cells (IKC); test: Effect of DEDTCA pretreatment on 3,5-DCA metabolism in IKC; settings: 90 min; for detection as 3,5-DCA metabolite in media and cells: DEDTCA experiment; for detection as 3,5-DCA metabolite in media and cells / Percent of Dose, Cells / Percent of Dose, Media: 3,5-DCA 1.0 mM; for Percent of Dose, Cells / Percent of Dose, Media: N = 4, mean ± SE
Description: In a separate experiment, cells were pretreated with diethyldithiocarbamic acid (DEDTCA, 0.1 mM, 30 min pretreatment), a CYP2C inhibitor, before 3,5-DCA addition to determine which metabolites were decreased with DEDTCA pretreatment. Following the 90 min incubation period, cells and media were treated and stored as described above for the determination of 3,5-DCA concentrations and the concentrations of 3,5-DCA metabolites formed.
Samples (75 µL) of media and lysed IKC were analyzed on a Waters Alliance e2695 HPLC system (Waters Co., Milford, MA, USA), utilizing a Waters 2489 variable UV/Vis detector at 254 nM. Chromatograms were collected and integrated using Empower 3 software (Waters Co., Milford, MA, USA). A Waters X Select HSS T3 C18 column (3.5 µm; 4.6 × 150 mm^2) fitted with a Waters XSelect HSS T3 VanGuard Cartridge (3.5 µm; 3.9 × 5 mm^2) was used for separation of compounds. The mobile phase consisted of 50:50 methanol:water with a flow rate of 0.75 mL/min. Standard curves, limits of detection, and extraction coefficients were determined for 3,5-DCA and putative metabolites. Extraction coefficients were determined by comparing the integration of a 1.0 mM 3,5-DCA or a metabolite sample that had undergone sample processing (i.e., the addition of methanol and centrifugation) to that of a unprocessed 1.0 mM 3,5-DCA or metabolite sample.

[2] = system: isolated kidney cells (IKC); test: LDH release cytotoxicity, time and concentration course, in isolated kidney cells; settings: for LDH release (marker of cytotoxicity) / nephrotoxic potential among the metabolites tested: 0-1.5 mM; for LDH release (marker of cytotoxicity): 60 or 90 min; for nephrotoxic potential among the metabolites tested: up to 90 min
[3] = system: isolated kidney cells (IKC); test: 3,5-DCA metabolism by IKC, HPLC of media and cells; settings: for free aminochlorophenol after arylsulfatase or β-glucuronidase treatment of media or cell lysates: 45 or 90 min
Description: At the end of the incubation period, 1.0 mL samples were collected, and media and cells separated by centrifugation. The pelleted cells were washed with KH buffer (no bovine serum albumin), and the rinse was added to the media. Cells were lysed via sonication and protein was precipitated by methanol (1.0 mL) addition to all samples. Samples were centrifuged (3000 g; 10 min, 4 °C) and the supernatant filtered through a 0.45 µ syringe filter and stored at −20 °C until analyzed by HPLC as described below.
To determine if sulfate or glucuronide conjugates were formed, in some experiments, media and cell supernatant fractions obtained as described above were treated with β-glucuronidase (6500 units/mL, final concentration) or arylsulfatase (200 units/mL, final concentration) + saccaharolactone (20 mM, final concentration) for 18 h (37 °C) in 0.1 M acetate buffer (pH 5.0) to hydrolyze any glucuronide or sulfate conjugates, respectively, that were formed [26]. Hydrolysis was stopped by the addition of cold methanol (2.4 mL). The fractions were then filtered and stored until analyzed as described above.
Chromatograms were collected and integrated using Empower 3 software (Waters Co., Milford, MA, USA). A Waters X Select HSS T3 C18 column (3.5 µm; 4.6 × 150 mm^2) fitted with a Waters XSelect HSS T3 VanGuard Cartridge (3.5 µm; 3.9 × 5 mm^2) was used for separation of compounds. The mobile phase consisted of 50:50 methanol:water with a flow rate of 0.75 mL/min. Standard curves, limits of detection, and extraction coefficients were determined for 3,5-DCA and putative metabolites. Extraction coefficients were determined by comparing the integration of a 1.0 mM 3,5-DCA or a metabolite sample that had undergone sample processing (i.e., the addition of methanol and centrifugation) to that of a unprocessed 1.0 mM 3,5-DCA or metabolite sample.

[4] = system: isolated kidney cells (IKC); parameters: method as in PMID 26808022; settings: 90 min exposure; cited from earlier work
[5] = system: isolated kidney cells (IKC); parameters: method as in PMID 26808022; settings: cited from earlier work
[6] = parameters: method as in PMID 26808022; settings: calculated, Fischer 344 rat; cited from earlier work
kidney = settings: cited from earlier work
renal cortical slices = settings: cited from earlier work
[7] = system: rat renal cortical slices; parameters: method as in PMID 8023337; settings: cited from earlier work
[8] = system: rat renal cortical slices; parameters: method as in PMID 18243470; settings: 2 h exposure; cited from earlier work
[9] = system: isolated kidney cells (IKC); parameters: method as in PMID 26808022; settings: cited from earlier work; remark: listed apart in the source
[10] = system: isolated kidney cells (IKC); test: Pretreatment with antioxidants or enzyme inhibitors before 3,5-DCNB, LDH release in IKC; settings: 1.0 mM 3,5-DCNB, 60 min, pretreatment concentrations per Table 4
[11] = system: isolated kidney cells (IKC); settings: 0.5 mM 3,5-DCPHA, 60 min, pretreatment concentrations per Table 4
[12] = IKC incubated with 1.0 mM 3,5-DCA
[13] = +DEDTCA (0.1 mM, 30 min pretreatment)
[14] = IKC incubated with 0.5 mM 3,5-DCA, 90 min, N = 3, mean ± SE
[15] = IKC incubated with 1.0 mM 3,5-DCA, 90 min, N = 4, mean ± SE

Nc1cc(Cl)cc(Cl)c1O [2-A-4,6-DCP, 2-amino-4,6-dichlorophenol]
detection as 3,5-DCA metabolite in media and cells [1]: no 2-A-4,6-DCP, 4-A-2,6-DCP or 3,5-DCPHA detected
LDH release (marker of cytotoxicity) [2]: did not result in significant increases in LDH release
nephrotoxic potential among the metabolites tested [2]: not cytotoxic
free aminochlorophenol after arylsulfatase or β-glucuronidase treatment of media or cell lysates [3, 12]: did not reveal any free 2-A-4,6-DCP or 4-A-2,6-DCP

Nc1cc(Cl)cc(Cl)c1 [3,5-DCA, 3,5-dichloroaniline]
concentration leading to increased LDH release [4]: ≥ 1000 µM
Percent of Dose, Cells [1, 13]: 14.67 ± 1.78%
Percent of Dose, Media [1, 13]: 91.14 ± 3.04%
Percent of Dose, Cells ([1]; −DEDTCA): 16.01 ± 2.02%
Percent of Dose, Media ([1]; −DEDTCA): 89.43 ± 5.66%
reduced and total glutathione levels [5]: both reduced
maximum blood level from a nephrotoxic dose [6]: ~ 1.25 mM
concentration that induces cytotoxicity (increased LDH release) ([2]; 90 min): 1000 µM
non-cytotoxic concentration ([2]; 90 min): 0.5 mM
renal effects of in vivo exposure (kidney; Sprague–Dawley or Fischer 344 rats): elevated blood urea nitrogen (BUN) concentration, decreased organic ion transport in proximal tubular cells, decreased kidney weight, proteinuria, and hematuria
Percentage of Dose, Cells [3, 14]: 6.82 ± 3.33%
Percentage of Dose, Media [3, 14]: 89.31 ± 6.32%
Percentage of Dose, Cells [3, 15]: 13.19 ± 2.12%
Percentage of Dose, Media [3, 15]: 87.13 ± 4.56%
fraction of 3,5-DCA metabolized to 3,5-DCAA and 3,5-DCNB ([3]; IKC, 0.5 or 1.0 mM, 90 min): Less than 5%

CC(=O)Nc1cc(Cl)cc(Cl)c1 [3,5-DCAA, 3,5-dichloroacetanilide]
Percent of Dose, Media [1, 13]: 0.30 ± 0.05%
Percent of Dose, Cells ([1]; −DEDTCA): 0.02 ^ %
Percent of Dose, Media ([1]; −DEDTCA): 0.50 ± 0.03%
LDH release (marker of cytotoxicity) [2]: did not significantly increase LDH release
nephrotoxic potential among the metabolites tested [2]: not cytotoxic
Percentage of Dose, Cells [3, 14]: 0.07 ^ %
Percentage of Dose, Media [3, 14]: 1.86 ± 0.42%
Percentage of Dose, Media [3, 15]: 0.56 ± 0.07%

O=[N+]([O-])c1cc(Cl)cc(Cl)c1 [3,5-DCNB, 3,5-dichloronitrobenzene]
Percent of Dose, Cells [1, 13]: 0.06 ^ %
Percent of Dose, Media [1, 13]: 0.09 ^ %
Percent of Dose, Cells ([1]; −DEDTCA): 0.13 ^ %
Percent of Dose, Media ([1]; −DEDTCA): 0.31 ± 0.19 %
nephrotoxic potential among dichloronitrobenzenes (renal cortical slices): least potent nephrotoxicant among the dichloronitrobenzenes
nephrotoxic potential among the metabolites tested [2]: intermediate in nephrotoxic potential
concentration giving significant increase in LDH release ([2]; 90 min exposure): ≥ 1000 µM
Percentage of Dose, Cells [3, 14]: 0.41 ^ %
Percentage of Dose, Media [3, 14]: 2.80 ^ %
Percentage of Dose, Cells [3, 15]: 0.34 ± 0.19 %
Percentage of Dose, Media [3, 15]: 1.18 ± 0.57 %

ONc1cc(Cl)cc(Cl)c1 [3,5-DCPHA]
detection as 3,5-DCA metabolite in media and cells [1]: no 2-A-4,6-DCP, 4-A-2,6-DCP or 3,5-DCPHA detected
nephrotoxic potential among the metabolites tested [2]: most potent nephrotoxicant
concentration giving significant increase in LDH release ([2]; 60 min exposure): ≥ 250 µM
concentration giving significant increase in LDH release ([2]; 90 min exposure): ≥ 250 µM

Nc1cc(Cl)c(O)c(Cl)c1 [4-A-2,6-DCP, 4-amino-2,6-dichlorophenol]
detection as 3,5-DCA metabolite in media and cells [1]: no 2-A-4,6-DCP, 4-A-2,6-DCP or 3,5-DCPHA detected
concentration reducing uptake of p-aminohippurate (PAH) [7]: 5 µM
concentration reducing uptake of tetraethylammonium (TEA) [7]: 50 µM
concentration increasing LDH release [8]: ≥ 50 µM
concentration required to increase LDH release ([2]; 90 min exposure, albumin in medium, no reference given): ≥ 250 µM
nephrotoxicity in vivo (kidney; male Fischer 344 rats, 0.38 mmol/kg, i.p.): marked nephrotoxicity
free aminochlorophenol after arylsulfatase or β-glucuronidase treatment of media or cell lysates [3, 12]: did not reveal any free 2-A-4,6-DCP or 4-A-2,6-DCP

CCN(CC)C(=S)S [DEDTCA, diethyldithiocarbamic acid, reference compound]
effect of pretreatment on 3,5-DCA metabolite formation ([1]; DEDTCA 0.1 mM, then 3,5-DCA 1.0 mM): formation of 3,5-DCAA and 3,5-DCNB were reduced
effect of inhibitor pretreatment on 3,5-DCA cytotoxicity [9]: markedly reduced 3,5-DCA cytotoxicity

COc1ccc2c(c1)c(CC(=O)O)c(C)n2C(=O)c1ccc(Cl)cc1 [Indomethacin]
effect of pretreatment on 3,5-DCNB-induced cytotoxicity (LDH release) [10]: tended to reduce 3,5-DCNB-induced LDH release but did not reach a significant difference

CC(=O)N[C@@H](CS)C(=O)O [N-acetyl-L-cysteine]
effect of pretreatment on 3,5-DCPHA-induced cytotoxicity (LDH release) [11]: partially attenuated
effect of pretreatment on 3,5-DCNB-induced cytotoxicity (LDH release) [10]: significantly attenuated

O=C1O[C@H]([C@@H](O)CO)C(O)=C1O [ascorbate]
effect of pretreatment on 3,5-DCPHA-induced cytotoxicity (LDH release) [11]: not effective at reducing 3,5-DCPHA cytotoxicity
effect of pretreatment on 3,5-DCNB-induced cytotoxicity (LDH release) [10]: significantly attenuated

N[C@@H](CCC(=O)N[C@@H](CS)C(=O)NCC(=O)O)C(=O)O [glutathione]
effect of pretreatment on 3,5-DCPHA-induced cytotoxicity (LDH release) [11]: fully protected
effect of pretreatment on 3,5-DCNB-induced cytotoxicity (LDH release) [10]: significantly attenuated

NNC(=O)c1ccncc1 [isoniazid]
effect of inhibitor pretreatment on 3,5-DCA cytotoxicity [9]: had no effect on 3,5-DCA cytotoxicity

O=C(O)CC(S)C(=O)O (stereo not shown) [mercaptosuccinate]
effect of pretreatment on 3,5-DCNB-induced cytotoxicity (LDH release) [10]: significantly attenuated

CC(C)(C(=O)c1cccnc1)c1cccnc1 [metyrapone]
effect of pretreatment on 3,5-DCNB-induced cytotoxicity (LDH release) [10]: significantly attenuated

CCCCCCCCN [n-octylamine]
effect of pretreatment on 3,5-DCNB-induced cytotoxicity (LDH release) [10]: significantly attenuated

CCCCOCCOCCOCc1cc2c(cc1CCC)OCO2 [piperonyl butoxide]
effect of pretreatment on 3,5-DCNB-induced cytotoxicity (LDH release) [10]: significantly attenuated

Cc1c(C)c2c(c(C)c1O)CC[C@@](C)(CCC[C@H](C)CCC[C@H](C)CCCC(C)C)O2 [α-tocopherol]
effect of pretreatment on 3,5-DCNB-induced cytotoxicity (LDH release) [10]: significantly attenuated
